Test results as given in patent US4210581A, “Organic compounds” (Sandoz Ltd., priority 1975, dated 1980).

Legend:
[1] = test system: paralysis induced by experimentally induced nerve tissue damages; assay: Experimental allergic encephalomyelitis (EAE) test; assay type: in vivo; settings: rats, between 50 and 100 mg/kg/day
[2] = Solubility at room temperature; assay type: physicochemical
[3] = test system: skin grafts in H-2 histoincompatible mice; assay: Skin transplantation (allograft) test; assay type: in vivo; settings: 100 to 200 mg/kg per os
[4] = test system: oxazolone skin hypersensitivity swelling; assay: Oxazolone skin hypersensitivity reaction; assay type: in vivo; settings: mice, doses of 70 to 200 mg/kg
[5] = test system: hemolytic plaque-forming cells; assay: Jerne test (local hemolysis in gel); assay type: in vivo; settings: mice, 50 to 200 mg/kg per os
From the text: (i) in the Jerne test the effect of the substance on local hemolysis in gel is observed.

[6] = test system: antibodies formed against sheep erythrocytes; assay: Hemagglutination test (HAT); assay type: in vivo; settings: mice, 100 to 200 mg/kg per os
Description: (ii) in the hemagglutination test (HAT) in mice a stimulation of the antibodies formed against sheep erythrocytes is obtained at a dose of from 100 to 200 mg/kg per os. animal body weight;

[7] = test system: Freund adjuvant arthritis swellings; assay: Freund adjuvant arthritis latent period test; assay type: in vivo; settings: rats, p.o., about 1 to about 10 mg/kg
Aspergillus Niger = assay: Activity against Aspergillus Niger; assay type: cell-based
From the text: Cyclosporin C may be isolated by chromatography as a compound active against Aspergillus Niger and having greater polarity than Cyclosporins A and B (designated S7481/F-1 and S7481/F-2 in the above mentioned D.O.S.).

Compound | incidence of paralysis [1] | solubility in organic solvents ([2]; benzene, dichloromethane, chloroform, ethyl acetate, acetone, ethanol and methanol) | solubility in water ([2]; water) | prolongation in the period of survival of skin grafts [3] | inhibition of swelling [4] | stimulation of hemolytic plaque-forming cells (immunoglobulin M and G2a antibodies) [5] | stimulation of the antibodies formed against sheep erythrocytes [6] | inhibition of swellings [7] | activity against Aspergillus Niger (Aspergillus Niger)
dihydrocyclosporin C | reduced significantly | easily soluble | difficulty soluble | significant prolongation | significant and pronounced inhibition | significant stimulation | stimulation | inhibition of swellings | 
C/C=C/C[C@@H](C)[C@@H](O)[C@H]1C(=O)N[C@@H]([C@@H](C)O)C(=O)N(C)CC(=O)N(C)[C@@H](CC(C)C)C(=O)N[C@@H](C(C)C)C(=O)N(C)[C@@H](CC(C)C)C(=O)N[C@@H](C)C(=O)N[C@H](C)C(=O)N(C)[C@@H](CC(C)C)C(=O)N(C)[C@@H](CC(C)C)C(=O)N(C)[C@@H](C(C)C)C(=O)N1C [Cyclosporin C, cyclosporin C] |  |  |  |  |  |  |  |  | active
